According to ChEMBL document CHEMBL1201862, “PubChem BioAssay data set” (2004):
Values belong to the compound of their own block, whether it stands above or below them. Active and inactive are the calls of the source.

Key:
[1] = target: T1, DNA repair and recombination protein RAD54-like (Homo sapiens, UniProt Q92698); assay: RAD54 Holliday junction migration blockers – biochemical, fluorescence, cherry-picked samples, dose series, confirmation (AID 651657); format: functional
T1 sequence (Q92698 whole entry): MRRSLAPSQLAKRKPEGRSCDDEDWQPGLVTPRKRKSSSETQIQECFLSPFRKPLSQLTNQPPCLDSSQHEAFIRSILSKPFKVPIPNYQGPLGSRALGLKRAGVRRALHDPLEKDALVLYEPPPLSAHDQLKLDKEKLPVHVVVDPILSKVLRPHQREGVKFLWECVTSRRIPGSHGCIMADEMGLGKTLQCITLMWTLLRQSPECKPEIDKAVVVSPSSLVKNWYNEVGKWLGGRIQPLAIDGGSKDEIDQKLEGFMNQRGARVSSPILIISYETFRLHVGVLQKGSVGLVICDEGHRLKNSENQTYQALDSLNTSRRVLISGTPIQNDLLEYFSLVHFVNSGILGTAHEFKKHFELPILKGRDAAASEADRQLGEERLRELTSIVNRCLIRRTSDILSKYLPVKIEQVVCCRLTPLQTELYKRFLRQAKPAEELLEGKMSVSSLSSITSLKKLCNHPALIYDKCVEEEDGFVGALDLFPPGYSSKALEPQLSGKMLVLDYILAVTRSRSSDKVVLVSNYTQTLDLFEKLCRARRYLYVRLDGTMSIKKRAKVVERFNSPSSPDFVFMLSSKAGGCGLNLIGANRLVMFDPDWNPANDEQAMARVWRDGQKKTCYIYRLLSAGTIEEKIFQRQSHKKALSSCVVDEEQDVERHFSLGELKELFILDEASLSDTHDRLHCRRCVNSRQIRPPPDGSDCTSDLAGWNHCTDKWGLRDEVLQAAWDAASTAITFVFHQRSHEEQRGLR

Cytochrome P450 2D6 = Cytochrome P450 2D6 (Homo sapiens, UniProt P10635);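 also: CYP2D6 member of a cytochrome P450 panel assay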
Aminopeptidase N = target: T2, Aminopeptidase N (Plasmodium falciparum FcB1/Columbia, UniProt O96935); assay: malaria alanyl aminopeptidase activity blockers – biochemical, fluorogenic H-Leu-NHMec substrate, 1536-well (AID 1445); design: species or system Plasmodium falciparum 3D7, 3D7
T2 sequence (O96935 whole entry): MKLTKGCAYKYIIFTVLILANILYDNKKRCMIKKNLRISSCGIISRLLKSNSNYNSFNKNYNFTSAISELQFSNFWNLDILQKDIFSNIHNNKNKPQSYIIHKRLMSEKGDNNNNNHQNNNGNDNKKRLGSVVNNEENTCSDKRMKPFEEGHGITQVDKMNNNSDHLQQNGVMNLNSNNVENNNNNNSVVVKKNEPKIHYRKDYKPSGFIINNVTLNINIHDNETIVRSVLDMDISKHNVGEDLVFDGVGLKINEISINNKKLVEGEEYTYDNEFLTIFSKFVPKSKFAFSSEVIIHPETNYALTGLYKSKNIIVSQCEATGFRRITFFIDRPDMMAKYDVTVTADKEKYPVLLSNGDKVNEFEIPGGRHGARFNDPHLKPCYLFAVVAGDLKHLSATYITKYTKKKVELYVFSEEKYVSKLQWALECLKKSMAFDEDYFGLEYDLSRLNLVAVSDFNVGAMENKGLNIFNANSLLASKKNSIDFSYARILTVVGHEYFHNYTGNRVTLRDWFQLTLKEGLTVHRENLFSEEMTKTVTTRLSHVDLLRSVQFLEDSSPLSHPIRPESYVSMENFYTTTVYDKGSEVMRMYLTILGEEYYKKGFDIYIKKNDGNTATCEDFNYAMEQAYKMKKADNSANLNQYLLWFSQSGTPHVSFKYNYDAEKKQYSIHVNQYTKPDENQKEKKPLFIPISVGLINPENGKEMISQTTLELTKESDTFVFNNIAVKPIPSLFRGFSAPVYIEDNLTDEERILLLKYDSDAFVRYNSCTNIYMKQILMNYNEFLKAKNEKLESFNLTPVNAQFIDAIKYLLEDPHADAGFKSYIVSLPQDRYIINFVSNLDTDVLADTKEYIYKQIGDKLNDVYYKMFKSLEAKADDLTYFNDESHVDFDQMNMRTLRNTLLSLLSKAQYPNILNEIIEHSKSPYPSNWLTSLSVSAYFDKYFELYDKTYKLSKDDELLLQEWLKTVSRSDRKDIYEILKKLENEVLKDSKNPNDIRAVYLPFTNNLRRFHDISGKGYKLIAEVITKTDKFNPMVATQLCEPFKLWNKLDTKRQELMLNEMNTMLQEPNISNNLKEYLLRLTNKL

Cytochrome P450 1A2 = target: T3, Cytochrome P450 1A2 (Homo sapiens, UniProt P05177);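 also: PubChem cytochrome P450 panel assay, CYP1A2 panel member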
T3 sequence (P05177 whole entry): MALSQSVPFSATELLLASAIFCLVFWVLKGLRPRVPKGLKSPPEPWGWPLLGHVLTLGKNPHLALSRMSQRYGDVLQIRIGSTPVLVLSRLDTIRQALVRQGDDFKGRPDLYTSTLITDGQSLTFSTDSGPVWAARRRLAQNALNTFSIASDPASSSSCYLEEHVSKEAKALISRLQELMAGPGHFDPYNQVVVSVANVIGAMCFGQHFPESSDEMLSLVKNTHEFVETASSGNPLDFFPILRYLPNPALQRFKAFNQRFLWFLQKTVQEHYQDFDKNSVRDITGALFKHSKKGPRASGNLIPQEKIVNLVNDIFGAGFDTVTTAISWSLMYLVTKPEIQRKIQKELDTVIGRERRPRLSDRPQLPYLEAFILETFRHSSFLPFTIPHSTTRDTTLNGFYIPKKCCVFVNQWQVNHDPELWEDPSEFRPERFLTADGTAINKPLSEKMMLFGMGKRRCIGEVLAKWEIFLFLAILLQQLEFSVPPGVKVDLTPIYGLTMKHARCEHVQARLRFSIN

[2] = target: Lysosomal acid glucosylceramidase (Homo sapiens, UniProt P04062); assay: Dose response cell-based high throughput screening assay to identify enhancers of beta-glucosidase activity. [Related pubchem assays: 784 ]; format: functional
[3] = target: T4, Eukaryotic translation initiation factor 2-alpha kinase 3 (Homo sapiens, UniProt Q9NZJ5); assay: Counterscreen assay for PERK inhibitors: Dose response cell-based high throughput screening assay to measure inhibition of PERK at 6 hours. [Related pubchem assays: 1522, 1416 ]; format: functional
[4] = target: T4, Eukaryotic translation initiation factor 2-alpha kinase 3; assay: Dose response cell-based high-throughput screening assay to measure PERK inhibition. [Related pubchem assays: 1416 ]; format: functional
[5] = target: T5, Voltage-gated N-type calcium channel alpha-1B subunit/Amyloid beta A4 precursor protein-binding family A member 1 (Homo sapiens, UniProt Q00975+Q02410); assay: disruptors of Mint-PDZ/N-type channel peptide interaction – biochemical, HTRF, SAR follow-up (AID 2489); format: functional
[6] = target: T5, Voltage-gated N-type calcium channel alpha-1B subunit/Amyloid beta A4 precursor protein-binding family A member 1; assay: disruptors of Mint-PDZ/N-type channel peptide interaction – biochemical, HTRF, set 2, SAR follow-up (AID 434980); format: functional

T4 sequence (Q9NZJ5 whole entry): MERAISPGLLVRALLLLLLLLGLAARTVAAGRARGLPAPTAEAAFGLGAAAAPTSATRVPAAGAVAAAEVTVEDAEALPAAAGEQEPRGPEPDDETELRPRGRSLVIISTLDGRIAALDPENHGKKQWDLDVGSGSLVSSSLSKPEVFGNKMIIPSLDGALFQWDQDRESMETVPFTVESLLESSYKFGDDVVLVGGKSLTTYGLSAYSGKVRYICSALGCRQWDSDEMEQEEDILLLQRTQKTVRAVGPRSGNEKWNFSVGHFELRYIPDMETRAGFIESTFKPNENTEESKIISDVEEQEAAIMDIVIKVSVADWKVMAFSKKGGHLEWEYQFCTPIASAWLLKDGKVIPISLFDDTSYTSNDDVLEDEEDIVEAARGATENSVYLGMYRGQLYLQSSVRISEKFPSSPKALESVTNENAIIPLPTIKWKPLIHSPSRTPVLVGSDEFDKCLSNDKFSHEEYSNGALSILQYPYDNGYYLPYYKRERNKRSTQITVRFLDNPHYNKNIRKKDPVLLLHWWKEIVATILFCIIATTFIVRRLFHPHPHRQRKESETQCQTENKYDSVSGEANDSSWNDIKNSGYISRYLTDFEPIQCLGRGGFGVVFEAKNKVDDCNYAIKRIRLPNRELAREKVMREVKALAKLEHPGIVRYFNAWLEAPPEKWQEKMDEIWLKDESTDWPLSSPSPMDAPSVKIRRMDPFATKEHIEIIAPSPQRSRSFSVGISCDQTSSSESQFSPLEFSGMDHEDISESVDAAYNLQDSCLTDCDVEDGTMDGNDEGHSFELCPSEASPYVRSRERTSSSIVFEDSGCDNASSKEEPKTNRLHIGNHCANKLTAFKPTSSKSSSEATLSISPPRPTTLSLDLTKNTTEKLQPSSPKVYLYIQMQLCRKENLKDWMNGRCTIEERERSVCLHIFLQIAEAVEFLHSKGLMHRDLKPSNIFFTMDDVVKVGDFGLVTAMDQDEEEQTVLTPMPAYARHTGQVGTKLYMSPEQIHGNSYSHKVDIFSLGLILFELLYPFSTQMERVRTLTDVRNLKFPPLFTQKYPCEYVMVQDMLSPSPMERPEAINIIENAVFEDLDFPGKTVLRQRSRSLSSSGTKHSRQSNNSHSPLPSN
T5 sequence (Q00975 whole entry): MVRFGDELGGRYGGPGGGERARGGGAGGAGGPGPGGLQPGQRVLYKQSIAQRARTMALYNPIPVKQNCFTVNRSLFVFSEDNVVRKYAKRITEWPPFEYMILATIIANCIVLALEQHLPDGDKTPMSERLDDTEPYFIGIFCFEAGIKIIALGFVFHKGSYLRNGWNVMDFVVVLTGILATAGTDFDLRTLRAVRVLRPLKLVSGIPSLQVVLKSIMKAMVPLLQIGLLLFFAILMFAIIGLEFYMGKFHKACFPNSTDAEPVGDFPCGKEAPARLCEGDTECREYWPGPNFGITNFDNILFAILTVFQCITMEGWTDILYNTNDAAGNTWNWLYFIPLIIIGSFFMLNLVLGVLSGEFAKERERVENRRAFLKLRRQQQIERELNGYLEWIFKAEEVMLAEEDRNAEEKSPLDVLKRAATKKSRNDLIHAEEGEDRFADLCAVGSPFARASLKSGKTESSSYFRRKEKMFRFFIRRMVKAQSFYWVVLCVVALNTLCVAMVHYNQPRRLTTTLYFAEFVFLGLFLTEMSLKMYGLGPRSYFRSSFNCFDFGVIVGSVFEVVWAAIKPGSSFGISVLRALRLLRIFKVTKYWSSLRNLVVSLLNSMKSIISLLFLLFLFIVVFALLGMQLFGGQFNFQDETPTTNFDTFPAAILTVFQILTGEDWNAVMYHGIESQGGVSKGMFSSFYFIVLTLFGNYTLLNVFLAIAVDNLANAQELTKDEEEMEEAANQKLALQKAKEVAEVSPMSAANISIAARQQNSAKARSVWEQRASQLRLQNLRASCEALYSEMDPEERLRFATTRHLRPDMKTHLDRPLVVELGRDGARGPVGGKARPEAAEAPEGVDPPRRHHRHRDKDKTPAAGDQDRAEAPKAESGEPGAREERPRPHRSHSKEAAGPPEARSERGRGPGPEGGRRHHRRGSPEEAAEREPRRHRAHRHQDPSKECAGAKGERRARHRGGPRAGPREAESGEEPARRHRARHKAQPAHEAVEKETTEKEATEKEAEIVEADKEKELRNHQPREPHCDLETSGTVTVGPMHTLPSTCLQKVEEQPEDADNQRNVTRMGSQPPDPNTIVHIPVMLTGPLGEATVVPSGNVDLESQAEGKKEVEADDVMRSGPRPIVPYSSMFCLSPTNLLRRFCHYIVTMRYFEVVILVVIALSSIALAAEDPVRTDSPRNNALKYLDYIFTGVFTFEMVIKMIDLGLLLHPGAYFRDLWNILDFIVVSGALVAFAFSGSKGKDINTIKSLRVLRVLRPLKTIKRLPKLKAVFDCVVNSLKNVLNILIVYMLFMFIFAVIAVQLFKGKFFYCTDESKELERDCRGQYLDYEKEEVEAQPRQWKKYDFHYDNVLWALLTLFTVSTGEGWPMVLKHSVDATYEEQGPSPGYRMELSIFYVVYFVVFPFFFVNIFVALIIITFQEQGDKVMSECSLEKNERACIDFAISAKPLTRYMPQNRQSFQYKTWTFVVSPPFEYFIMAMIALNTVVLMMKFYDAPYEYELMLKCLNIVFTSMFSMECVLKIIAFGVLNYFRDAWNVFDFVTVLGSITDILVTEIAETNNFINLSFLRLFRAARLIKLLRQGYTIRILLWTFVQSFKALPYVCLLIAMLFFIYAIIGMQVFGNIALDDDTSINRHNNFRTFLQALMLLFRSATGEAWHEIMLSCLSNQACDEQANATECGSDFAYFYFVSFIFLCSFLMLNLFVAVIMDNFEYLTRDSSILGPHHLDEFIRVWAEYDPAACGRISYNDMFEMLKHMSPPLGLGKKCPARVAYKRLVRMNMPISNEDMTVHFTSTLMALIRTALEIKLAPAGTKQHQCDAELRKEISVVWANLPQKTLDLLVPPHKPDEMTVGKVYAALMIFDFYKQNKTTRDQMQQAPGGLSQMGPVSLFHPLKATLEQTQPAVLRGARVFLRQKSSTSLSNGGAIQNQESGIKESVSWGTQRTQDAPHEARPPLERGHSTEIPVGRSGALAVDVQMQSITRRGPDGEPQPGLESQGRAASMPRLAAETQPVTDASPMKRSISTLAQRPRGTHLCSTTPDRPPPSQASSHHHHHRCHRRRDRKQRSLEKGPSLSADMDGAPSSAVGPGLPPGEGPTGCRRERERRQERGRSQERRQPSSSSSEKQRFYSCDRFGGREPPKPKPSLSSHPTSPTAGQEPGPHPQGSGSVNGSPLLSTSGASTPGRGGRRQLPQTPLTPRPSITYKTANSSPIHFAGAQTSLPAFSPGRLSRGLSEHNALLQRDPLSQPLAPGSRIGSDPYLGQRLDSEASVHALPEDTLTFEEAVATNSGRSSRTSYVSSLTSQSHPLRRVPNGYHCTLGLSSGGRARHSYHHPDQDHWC
T5 sequence (Q02410 whole entry): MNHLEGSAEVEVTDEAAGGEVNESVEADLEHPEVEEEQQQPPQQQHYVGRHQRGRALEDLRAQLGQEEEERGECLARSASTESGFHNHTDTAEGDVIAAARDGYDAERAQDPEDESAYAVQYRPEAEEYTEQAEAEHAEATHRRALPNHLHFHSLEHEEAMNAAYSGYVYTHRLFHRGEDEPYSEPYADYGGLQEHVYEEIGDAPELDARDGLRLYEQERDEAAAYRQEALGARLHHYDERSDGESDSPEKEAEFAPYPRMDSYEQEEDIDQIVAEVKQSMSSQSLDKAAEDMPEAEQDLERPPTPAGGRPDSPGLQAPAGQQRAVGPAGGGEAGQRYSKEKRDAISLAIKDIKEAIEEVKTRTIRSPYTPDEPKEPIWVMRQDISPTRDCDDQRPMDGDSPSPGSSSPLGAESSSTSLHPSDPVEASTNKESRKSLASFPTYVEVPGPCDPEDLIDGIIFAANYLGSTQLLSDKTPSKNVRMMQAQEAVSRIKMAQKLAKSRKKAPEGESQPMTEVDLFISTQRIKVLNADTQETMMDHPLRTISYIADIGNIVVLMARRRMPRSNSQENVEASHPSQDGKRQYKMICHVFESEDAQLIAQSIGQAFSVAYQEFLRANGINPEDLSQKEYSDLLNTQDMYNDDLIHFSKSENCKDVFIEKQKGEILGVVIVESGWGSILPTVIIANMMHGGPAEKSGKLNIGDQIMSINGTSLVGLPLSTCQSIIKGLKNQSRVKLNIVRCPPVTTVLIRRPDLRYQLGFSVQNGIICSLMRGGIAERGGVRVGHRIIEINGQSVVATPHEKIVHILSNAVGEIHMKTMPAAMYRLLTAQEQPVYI
Sequence of Lysosomal acid glucosylceramidase (P04062 whole entry): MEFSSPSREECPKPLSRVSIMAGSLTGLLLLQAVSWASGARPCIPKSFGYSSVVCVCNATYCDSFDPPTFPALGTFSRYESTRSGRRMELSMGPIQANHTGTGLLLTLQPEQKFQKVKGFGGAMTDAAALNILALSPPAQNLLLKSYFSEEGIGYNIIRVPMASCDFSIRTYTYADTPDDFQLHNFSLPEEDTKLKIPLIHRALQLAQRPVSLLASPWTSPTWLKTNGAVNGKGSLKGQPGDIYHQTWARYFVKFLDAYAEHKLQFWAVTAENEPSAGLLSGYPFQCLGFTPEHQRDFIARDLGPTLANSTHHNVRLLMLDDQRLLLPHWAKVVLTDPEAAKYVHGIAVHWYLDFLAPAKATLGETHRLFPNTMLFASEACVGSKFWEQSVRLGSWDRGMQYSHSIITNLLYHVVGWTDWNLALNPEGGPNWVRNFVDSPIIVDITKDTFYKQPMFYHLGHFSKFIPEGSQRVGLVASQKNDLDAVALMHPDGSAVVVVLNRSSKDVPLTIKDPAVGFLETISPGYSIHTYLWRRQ

AC50 [1]: 26.5 µM (active) | AC50 (Cytochrome P450 2D6): 1.41 µM (inconclusive) | IC50 (Aminopeptidase N): 107 µM (active) | AC50 (Cytochrome P450 1A2): 31.6 µM (inconclusive) | EC50 [2]: 15.9 µM (not active)
Compound: CCN1CCN(CCCNC(=O)c2cc3cc4ccc(OC)cc4nc3o2)CC1

EC50 [3]: > 55.7 µM (not active) | EC50 [4]: > 55.7 µM (not active)
Compound: O=C(O)c1ccc(-c2nc(-c3ccccc3)c(-c3cccs3)[nH]2)cc1

IC50 [5]: 29.2 µM (active) | IC50 [6]: > 56.8 µM (inactive)
Compound: O=C(NCCc1cccnc1)c1cc(-c2ccco2)nc2ccccc12
